Results from publication PMC11585513, “A novel ACE inhibitory peptide from Pelodiscus sinensis Wiegmann meat water-soluble protein hydrolysate” (Amino Acids, 2024).
Read-outs that look alike come from different tables or passages of the source. Each block holds one compound with its values, some of them ahead of it. Peptide text beside a SMILES is read from it.

Columns and labels:
ACE [1] = conditions: cited from earlier work
Procedure: The kinetics of IEWEF inhibition of ACE were determined by Lineweaver–Burk plot (Fig. 1). […] We speculate that IEWEF interacts with the non-active domain of ACE to form an enzyme-inhibitor complex even in the presence of substrate (Xie et al. [2022]). A number of non-competitive ACE inhibitory peptides have been reported in recent years, including GVSLPEW, GYGGVSLPEW, and VGINYW from α-lactalbumin (W ...

ACE [2] = conditions: at 0.5 mg/mL; ref Girgih et al. [2014]; cited from earlier work
Procedure: This is within the range (0.3 ~ 1000.0 µM) known to reduce blood pressure (Chen et al. [2022]). There are several reported ACE inhibitory peptides similar to IEWEF in their amino acid compositions, including IE, EW, IEW, EF, LEF and IEEAF. The peptides IE and EW are both ACE inhibitory peptides isolated from milk hydrolysates, although their IC50 values have not been reported thus far (van Platerink et al. [2008]).

ACE [3] = molecular target: T1, ACE (Oryctolagus cuniculus, UniProt P12822); assay: In vitro assay of ACE inhibitory activity (HHL substrate, HPLC of hippuric acid); format: biochemical, rabbit; conditions: for inhibition at 86.57 µM: 86.57 μmol/L; for inhibition at 86.57 µM / inhibition at 173.13 µM / inhibition at 346.26 µM / inhibition at 692.52 µM / inhibition at 2770.08 µM: read-out: ACE inhibitory activities (%); for inhibition at 173.13 µM: 173.13 μmol/L; for inhibition at 346.26 µM: 346.26 μmol/L; for inhibition at 692.52 µM: 692.52 μmol/L; for inhibition at 2770.08 µM: 2770.08 μmol/L
T1 construct: ACE (1U, derived from rabbit lung, CAS 207386-83-2); purchased Sigma-Aldrich Co. (St. Louis, MO, USA); host or cells: rabbit lung
T1 sequence (P12822 34-1310): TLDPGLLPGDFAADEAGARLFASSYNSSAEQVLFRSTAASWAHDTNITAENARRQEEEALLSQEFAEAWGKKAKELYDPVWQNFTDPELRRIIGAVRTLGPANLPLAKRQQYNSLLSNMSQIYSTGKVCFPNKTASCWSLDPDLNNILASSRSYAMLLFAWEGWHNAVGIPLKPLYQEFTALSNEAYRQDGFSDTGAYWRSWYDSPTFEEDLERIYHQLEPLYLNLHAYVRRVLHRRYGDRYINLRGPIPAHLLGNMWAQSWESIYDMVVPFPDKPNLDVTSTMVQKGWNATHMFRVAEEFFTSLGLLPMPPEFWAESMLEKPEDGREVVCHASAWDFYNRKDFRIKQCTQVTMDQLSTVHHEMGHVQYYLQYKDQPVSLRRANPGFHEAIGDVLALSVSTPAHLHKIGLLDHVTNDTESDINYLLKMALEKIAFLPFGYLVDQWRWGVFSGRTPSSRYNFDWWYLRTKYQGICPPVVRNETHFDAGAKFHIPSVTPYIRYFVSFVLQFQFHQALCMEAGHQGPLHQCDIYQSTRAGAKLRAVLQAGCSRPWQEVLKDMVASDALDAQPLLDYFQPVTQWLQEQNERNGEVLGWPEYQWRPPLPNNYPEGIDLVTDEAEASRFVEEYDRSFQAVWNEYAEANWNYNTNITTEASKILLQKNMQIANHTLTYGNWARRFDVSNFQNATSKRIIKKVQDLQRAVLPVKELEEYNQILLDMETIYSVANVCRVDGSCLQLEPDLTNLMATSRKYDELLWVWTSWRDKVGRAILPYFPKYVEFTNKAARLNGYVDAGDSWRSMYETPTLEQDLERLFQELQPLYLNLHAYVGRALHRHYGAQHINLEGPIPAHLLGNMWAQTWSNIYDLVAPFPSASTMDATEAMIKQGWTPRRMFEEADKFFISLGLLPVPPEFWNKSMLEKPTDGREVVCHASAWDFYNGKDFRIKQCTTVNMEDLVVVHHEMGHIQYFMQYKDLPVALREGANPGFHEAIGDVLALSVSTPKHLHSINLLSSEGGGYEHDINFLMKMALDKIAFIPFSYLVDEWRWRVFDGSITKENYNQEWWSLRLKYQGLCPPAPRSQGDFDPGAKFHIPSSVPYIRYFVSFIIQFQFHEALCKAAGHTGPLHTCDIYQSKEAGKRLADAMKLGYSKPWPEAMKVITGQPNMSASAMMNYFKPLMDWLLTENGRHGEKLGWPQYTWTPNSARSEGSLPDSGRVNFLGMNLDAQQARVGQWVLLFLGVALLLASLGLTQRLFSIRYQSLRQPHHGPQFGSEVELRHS
Procedure: WSPM prepared in our previous work (Sun et al. [2022]) and stored at − 20 °C after freeze-drying was used for this study. ACE (1U, derived from rabbit lung, CAS […]), Hippuryl-L-histidyl-L-leucine (HHL, CAS […]), and hippuric acid (HA, CAS 495-69-2) were obtained from Sigma-Aldrich Co. (St. Louis, MO, USA). The reagents used for HPLC analysis were all HPLC grade, and all other reagents used were analytical grade. The amounts of each protein were quantified using the BCA Protein Assay Kit (Bio-Rad, USA). All the protein samples were packed separately and stored at − 80 °C.
In vitro assay of ACE inhibitory activities of the selected peptides ACE inhibitory activity was evaluated in vitro according to previous methods with some modifications (Liao et al. [2018]; Xie et al. [2022]). All of the assays were carried out in 0.1 mol/L sodium borate buffer (containing 0.3 mol/L NaCl at pH 8.3). For each peptide of interest, 40 µL ACE solution (100 mU/mL) was pre-incubated with the peptide (60 µL) at 37 °C for 10 min. Next, 40 µL HHL solution (5.40 mmol/L) was added to the solution at 37 °C, and the reaction was allowed to proceed for 15 min at 37 °C. Finally, 60 µL 1 mol/L HCl was added to terminate the reaction. A borate buffer only control processed using the above procedure was also included for use as a blank. To quantify the amount of HA (hippuric acid) generated, 20 µL of reaction solution (pre-filtered using a 0.45 µm microporous membrane) was analyzed by HPLC (Waters e2695, Milford, USA) on a C18 column (150 × 4.6 mm, 5 µm; ThermoFisher Scientific, USA). The run conditions were as follows: mobile phase, methanol/water/phosphoric acid solution (15:84.9:0.1, V/V/V); flow rate, 1.0 mL/min; UV detection wavelength, 228 nm. All experiments were conducted in triplicate. ACE inhibitory activity was calculated according to the following equation:1 ACE inhibitory activity\%=B-A/B×100\% where A represents the peak area of HA in the sample, and B represents the peak area of HA in the blank.

[4] = from α-lactalbumin, ref Wei et al. [2022]
[5] = from Carapax Trionycis, ref Liao et al. [2018]

Compound: VGINYW
- Inhibition mode (ACE [1]; [4]): non-competitive

Compound: GYGGVSLPEW
- Inhibition mode (ACE [1]; [4]): non-competitive

Compound: IEEAF
- Inhibitory activity against ACE (ACE [2]): around 40%

- inhibition at 86.57 µM (ACE [3]; replicate 1): 58.4%
- inhibition at 86.57 µM (ACE [3]; replicate 2): 57.8%
- inhibition at 86.57 µM (ACE [3]; replicate 3): 57.9%
- inhibition at 173.13 µM (ACE [3]; replicate 1): 65.3%
- inhibition at 173.13 µM (ACE [3]; replicate 2): 59.3%
- inhibition at 173.13 µM (ACE [3]; replicate 3): 65%
- inhibition at 346.26 µM (ACE [3]; replicate 1): 72.2%
- inhibition at 346.26 µM (ACE [3]; replicate 2): 69.3%
- inhibition at 346.26 µM (ACE [3]; replicate 3): 70.5%
- inhibition at 692.52 µM (ACE [3]; replicate 1): 66.8%
- inhibition at 692.52 µM (ACE [3]; replicate 2): 74.4%
- inhibition at 692.52 µM (ACE [3]; replicate 3): 74.5%
- inhibition at 2770.08 µM (ACE [3]; replicate 1): 91.2%
- inhibition at 2770.08 µM (ACE [3]; replicate 2): 91%
- inhibition at 2770.08 µM (ACE [3]; replicate 3): 91%
- IC50 (ACE [3]; ACE 100 mU/mL from rabbit lung, HHL 5.40 mmol/L, 0.1 mol/L sodium borate buffer with 0.3 mol/L NaCl pH 8.3, 10 min pre-incubation, 15 min at 37 °C, HPLC-UV 228 nm, mean ± SD, n = 3, read-out: IC50 value against ACE): 41.3 µM
Compound: CC[C@H](C)[C@H](N)C(=O)N[C@@H](CCC(=O)O)C(=O)N[C@@H](Cc1c[nH]c2ccccc12)C(=O)N[C@@H](CCC(=O)O)C(=O)N[C@@H](Cc1ccccc1)C(=O)O [IEWEF, Ile-Glu-Trp-Glu-Phe] (H-IEWEF-OH)

Compound: KHMFK
- Inhibition mode (ACE [1]; [5]): non-competitive

Compound: PPLLFAAL
- Inhibition mode (ACE [1]; from Takifugu flavidus, ref Su et al. [2021]): non-competitive

Compound: KRER
- Inhibition mode (ACE [1]; [5]): non-competitive

Compound: LLYQEPLGPVR
- Inhibition mode (ACE [1]; from casein hydrolysate, ref Liu et al. [2020]): non-competitive

Compound: KIGSRSRFEVT
- Inhibition mode (ACE [1]; from the shiitake mushroom, ref Paisansak et al. [2021]): non-competitive

Compound: WGAP
- Inhibition mode (ACE [1]; from rabbit meat, ref Chen et al. [2021]): non-competitive

Compound: GVSLPEW
- Inhibition mode (ACE [1]; [4]): non-competitive
